Tests used:
[1] = test system: micro-capillary blood flow to skin; assay: Laser Doppler capillary blood flow in humans, 10,000 ppm NO in closed chamber (Example 5); type: in vivo, human; settings: applied to the skin at 1/10% in alcohol
From the text: The formulation used in these studies contained nitric oxide dispersed in a lipid matrix. […] Nitric oxide is a very rapid acting molecule, and these studies used a system that employed laser Doppler with a covered chamber. The formulation was placed into the chamber and then attached to the skin by an adhesive layer on the covering. This provided a stable measuring device as determined by multiple normal evaluations of the capillary blood flow without treatment of nitric oxide.
A known positive control, methyl nicotinate, was applied to the skin at a concentration of 1/10% in alcohol. […] The vascular dynamics are such that when the blood vessels dilate physical parameters follow Bernoulli's law. This states that as one increases the diameter of a tube containing a liquid to flow will increase but the pressure and the speed of the liquid will decrease. The laser Doppler device accurately measured these parameters.
The test product was labeled as 10,000 ppm NO (nitric oxide). The study participants had 100 mg of the test product applied in a closed Hilltop chamber on the forearm. […]
A Moor Instruments DRT4 Laser Doppler Blood Flow Monitor (Devon, England) was used in these studies. The laser Doppler technique measured blood flow in the microcapillaries of the skin that are close to the skin surface and the blood flow in underlying arterioles and venules that help to regulate skin temperature. […]

[2] = test system: capillary circulation of the skin; assay: Laser Doppler circulation in five human subjects (Example 8); type: in vivo; settings: positive control formulation containing 0.1% methyl nicotinate
From the text: This example illustrates delivery of nitric oxide formulations to five human subjects, using procedures and formulations similar to those discussed in Example 5. Each person served as their own control for the testing. A Moor Instruments Laser Doppler was used to determine circulation. […] The formulations used produce positive, almost immediate results when applied to the skin which, in these studies, was manifested by vasodilatation of the cutaneous vascular system.
For each subject, the following creams were applied: a negative control formulation (containing no NO), 0.010 gram of a 10,000 ppm NO formulation, 0.020 gram of a 10,000 ppm NO formulation, and a positive control formulation containing 0.1% methyl nicotinate. The formulations were prepared using procedures similar to those discussed in Example 1.

SMILES: COC(=O)c1cccnc1 [methyl nicotinate]
- laser Doppler response of positive control [1]: rapid response typical of the vasodilator
- vasodilatation (laser Doppler) [2]: vasodilatation was observed

From US10188603B2, “Topical systems and methods for treating sexual dysfunction” (priority 2013, dated 2019)
